Reference: US20090016989A1, “ANTIBODIES TO HUMAN SOMATOSTATIN RECEPTOR AND METHODS OF USE” (priority 2007, published 2009)

Key:
Format in all cases: cell-based, human
BON cells [1] = test: MTS cell proliferation assay, growth doubling time
Experimental: The effects of anti-hSSTR subtype 2 and anti-hSSTR subtype 5 antibodies on cell proliferation were tested using CellTiter 96® Aqueous One Solution Cell Proliferation Assay (MTS) (Promega, Cat#G3581). The assay was performed to measure the growth doubling time for BON cells in vitro (FIG. 3, growth doubling time in hours is presented on the Y-axis). The growth doubling time for BON cells following treatment with rabbit IgG was around 28 to 30 hours (similar to vehicle alone). […] Cell growth was detected at 490 nm (colorimetric detection) by using instrument Victor 3V (Perkin Elmer) once every 24 hours in the duration of 96 hours.
The resulting maximal suppression in hours (20 hours) is designated as 100% of growth suppression. The difference measured in doubling time detected between experimental samples and untreated samples divided by the maximal suppression yields the percent growth suppression.
BON cells were seeded, grown and maintained in F12 HAM (Invitrogen, Cat#31765035)/D-MEM (Invitrogen, Cat#10567-014) (50/50) with 10% certified fetal bovine serum (FBS) (Invitrogen, Cat#16000-044) in 96-well cell culture dishes (Costar, Cat# 3590) at a density of 2500 cells/well. […] Cell growth was detected at 490 nm (colorimetric detection) by using instrument Victor 3V (Perkin Elmer) once every 24 hours in the duration of 96 hours.

BON cells [2] = test: Serotonin EIA, serotonin release
Experimental: A serotonin ([…]) assay was performed using Serotonin EIA (Biosource, Cat# KAPL10-0900) to measure serotonin release by BON cells over a 48-hour period with or without treatment. […] After 24 hours, the BON cells were subjected to six different daily treatments (at maximum dosages) and grown in FBS-free cell growth media for 2 days in a sterile tissue culture chamber at 37° C. with 6% CO2. These six treatments were: […] The anti-hSSTR Abs (4)-(6) were antibodies produced in the experiment described in Example 1. At the end of each treatment, 1× Halt Protease Inhibitor cocktail (Pierce, Cat# 78415) was immediately added to each sample and the media was collected from each sample and used for Serotonin detection. Next, cells were dissociated from the plate using 2 ml of 1× trypsin-EDTA (Invitrogen Cat#2520) in cell growth media and incubated at 37° C. with 6% CO2 for 5 minutes. Subsequently, an additional 8 ml of cell growth media was added to neutralize trypsin-EDTA, and subjected to 1000 rpm at 4° C. in 15 ml Falcon tubes using Beckman table top centrifuge. Guava Technologies PCA-96 instrument (tabletop flow cytometer) and Viacount flex reagent (Guava Technologies, Cat# 4500-0100) were then used to determine the number of cells for the abovementioned treatments. The results were as follows: […] […]

BON cells [3] = test: Cell number after 48-hour treatment (Viacount); conditions: after 2 days of daily treatment, 5 μg/ml antibody or rabbit IgG, 100 nM octreotide
Experimental: A serotonin ([…]) assay was performed using Serotonin EIA (Biosource, Cat# KAPL10-0900) to measure serotonin release by BON cells over a 48-hour period with or without treatment. […] After 24 hours, the BON cells were subjected to six different daily treatments (at maximum dosages) and grown in FBS-free cell growth media for 2 days in a sterile tissue culture chamber at 37° C. with 6% CO2. These six treatments were: […] The anti-hSSTR Abs (4)-(6) were antibodies produced in the experiment described in Example 1. At the end of each treatment, 1× Halt Protease Inhibitor cocktail (Pierce, Cat# 78415) was immediately added to each sample and the media was collected from each sample and used for Serotonin detection. Next, cells were dissociated from the plate using 2 ml of 1× trypsin-EDTA (Invitrogen Cat#2520) in cell growth media and incubated at 37° C. with 6% CO2 for 5 minutes. Subsequently, an additional 8 ml of cell growth media was added to neutralize trypsin-EDTA, and subjected to 1000 rpm at 4° C. in 15 ml Falcon tubes using Beckman table top centrifuge. Guava Technologies PCA-96 instrument (tabletop flow cytometer) and Viacount flex reagent (Guava Technologies, Cat# 4500-0100) were then used to determine the number of cells for the abovementioned treatments. The results were as follows: […]

BON cells [4] = test: Guava Nexin apoptosis assay (Annexin V / 7-AAD); conditions: 10 μg/ml rabbit IgG or antibodies, 100 nM octreotide, % of Total

C[C@@H](O)[C@@H]1NC(=O)[C@H](CCCCN)NC(=O)[C@@H](Cc2c[nH]c3ccccc23)NC(=O)[C@H](Cc2ccccc2)NC(=O)[C@@H](NC(=O)[C@H](N)Cc2ccccc2)CSSC[C@@H](C(=O)N[C@H](CO)[C@@H](C)O)NC1=O [octreotide]
approximate EC50 (growth) (BON cells [1]; octreotide 0.5, 1, 10 to 50 nM, FIG. 5): single nM
doubling time (BON cells [1]; saturating octreotide (50 nM)): ~50 h
serotonin level in the media (BON cells [2]; 48-hour period, 5 μg/ml antibody or rabbit IgG, 100 nM octreotide, four independent experiments): 2126 attogram/cell
decrease of serotonin release against control (BON cells [2]; 48 hours, antibodies against rabbit IgG, octreotide against vehicle (PBS)): 2.7 fold
number of cells (BON cells [3]): 7 million cells
Live, healthy cells (Lower Left Quadrant) (BON cells [4]; 24 hours after treatment): 95.7%
Late apoptotic cells (Upper Right Quadrant) (BON cells [4]; 48 hours after treatment): 10.0%
Live, healthy cells (Lower Left Quadrant) (BON cells [4]; 48 hours after treatment): 85.4%
Live, healthy cells (Lower Left Quadrant) (BON cells [4]; 72 hours after treatment): 72.5%
